From patent publication US20220009894A1, “1,2,3,4-TETRAHYDROQUINOXALINE DERIVATIVE, PREPARATION METHOD THEREFOR AND APPLICATION THEREOF” (Abbisko Therapeutics Co., Ltd., priority 2019, published 2022)

Tests used:
RORγt = target: T1, RORγt (Homo sapiens, UniProt P51449); assay: RORγt cellular reporter gene detection assay; assay type: cell-based; conditions: 24 hrs; for EC50: HEK 293 cells co-transfected with pFN26A-RORγt-LBD and pG14.35, in presence of antagonist Ursolic acid, top concentration 50 μM; for Cellular Reporter Assay Amax: upper activation limit, HEK 293 cells, in presence of antagonist Ursolic acid;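 on Cellular Reporter Assay Amax: Ursolic Acid added as 5 µL of 20 µM medium per well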
T1 construct: The plasmid of pFN26A-RORγt-LBD and pG14.35 (Promega, Cat. No. E1370) were co-transfected into HEK 293 cells; expressed in transfected cells; host or cells: HEK 293 cells (Cat. No. GNHu18)
T1 sequence (P51449 269-508 limits assumed): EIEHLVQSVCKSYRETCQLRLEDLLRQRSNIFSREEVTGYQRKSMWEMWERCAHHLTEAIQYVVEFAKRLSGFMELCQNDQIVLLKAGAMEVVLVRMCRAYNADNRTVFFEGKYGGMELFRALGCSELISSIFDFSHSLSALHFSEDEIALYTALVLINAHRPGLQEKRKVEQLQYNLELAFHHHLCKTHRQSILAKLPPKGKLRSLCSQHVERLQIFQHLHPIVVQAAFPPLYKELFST
Experimental: II. RORγt Cellular Reporter Gene Detection Assay
In this experiment, RORγt Reporter Gene Detection method was used to evaluate the activation and specificity of compounds to RORγt in cells. The plasmid of pFN26A-RORγt-LBD and pG14.35 (Promega, Cat. No. E1370) were co-transfected into HEK 293 cells (Cat. No. GNHu18). The efficacy of compounds was evaluated with the presence of an antagonist Ursolic acid (Selleck, Cat. No. S2370-100 mg). The specific experimental process was as follow: • 1. The plasmids-co-transfected cells were inoculated into a 96-well plate (Corning, Cat. No 3610) in a fresh DMEM medium (Gibco, cat. No. 1773536) containing 10% fetal bovine serum (Gibco, Cat. No. 10099-141) at 30000 cells/40 μL/well; • 2. 5 μL of medium containing 20 μM Ursolic acid was added thereto; • 3. The dose effect was evaluated by a 4-fold dilution of the test compound starting from 50 μM; • 4. 5 μL of medium containing a compound concentration of 10-fold of its final test concentration was added; • 5. After the cells were incubated at 37° C. and 5% CO2 for 24 hrs, 50 μL of detection reagent was added to detect firefly fluorescence using PerkinElmerEnVision, and 50 μL of the second detection reagent was added to detect sea kidney fluorescence; • 6. A four-parameter curve simulated in GraphPad Prism was used to determine the concentration for 50% activation (EC50) and the upper activation limit (Amax) for each compound.

RORγt-LBD = target: T2, RORγt-LBD (Homo sapiens, UniProt P51449); assay: Time-resolved fluorescence resonance energy-transfer assay (TR-FRET), co-activator peptide recruitment; assay type: biochemical; set-up: TR-FRET Biochemical Amax: unit not given here; conditions: for EC50: His-RORγt-LBD 30 nM, SRC peptide 500 nM, agonistic activity, averages of one or more measurements, read-out: TR-FRET Biochemical EC50/; for TR-FRET Biochemical Amax: upper activation limit, His-RORγt-LBD, SRC peptide
T2 sequence (P51449 269-508 limits assumed): T1 sequence (P51449 269-508 limits assumed)
Source text: I. Time-Resolved Fluorescence Resonance Energy-Transfer Assay (TR-FRET)
This experiment was a screening experiment for RORγt nuclear receptor agonists based on TR-FRET technology. When His-labeled RORγt-LBD receptor binds to receptor agonists, it may increase the recruitment of biotin-labeled co-activator peptides. Europium-His-RORγt-LBD is indirectly labeled by donor (Eu) by binding to Eu-anti-His antibody. Once Eu is activated by an energy source (such as flashlight or laser), the energy will be transferred to the co-activator indirectly labeled by allophycocyanin by binding of allophycocyanin-streptavidin and biotin-labeled co-activator. • 1. 10× buffer (500 mM Tris-HCl, 500 mM KCl, and 10 mM Na-EDTA) was prepared, pH value was adjusted to 7.0. The buffer was stored at 4° C. for later use and was restored to normal temperature before experiment; • 2. The 10× buffer was diluted to 1× with pure water. Final concentration of 0.01% Triton X-100 and 1 mM DTT (dithiothreitol) were added to prepare the assay buffer; • 3. DMSO was used to prepare 1000× compound stock solution. The compound solution was serial-diluted in 5-fold for 7 concentrations from the top concentration of 1000 nM/10000 nM. Then the 10× compound solution was prepared with assay buffer. An amount of 2 μL was aliquoted into the 20 μL system; • 4. 5×RORγt-LBD protein solution was unfreezed, and a solution of 5× concentration was prepared with assay buffer to obtain a final concentration of 30 nM. The whole operation was carried out on ice; • 5. 5×SRC peptide was unfreezed, and a solution of 5× concentration was prepared with assay buffer to obtain a final concentration of 500 nM. The whole operation was carried out on ice; • 6. 4 μL/well of RORγt-LBD receptor was added into the testing wells of 384-well plate, and the same amount of assay buffer was added to the control wells of non-RORγt-LBD group; • 7. 2 μL of compound was added into each well of 384-well plate; • 8. 4 μL of SRC peptide was added into each well of 384-well plate; • 9. 2× Eu-anti-6× His/APC-Streptavidin was diluted with Lance detection buffer to a final concentration of 0.25 nM and 5 nM, respectively, and then 10 μL of 2× Eu-anti-6× His/APC-Streptavidin was added into each well of 384-well plate; • 10. The mixed solution was incubated at 4° C. overnight; • 11. On the morning of the next day, the 384-well plate was incubated at room temperature for 1 hr. Then the corresponding signal values were read with PerkinElmer EnVision at a wavelength of 665/615 […]. The agonistic activity of the corresponding compound was calculated with Graphpad Prism 7.0 software.

## CC1(C)C=C(c2ccc3c(c2)N(S(=O)(=O)c2cccc(C(F)(F)F)c2)C[C@@H]2CNCCN32)CC(C)(C)O1 [Example 13, (S)-8-(2,2,6,6-tetramethyl-3,6-dihydro-2H-pyran-4-yl)-6-((3-(trifluorometh-yl)phenyl)sulfonyl)-2,3,4,4a,5,6-hexahydro-1H-pyrazino[1,2-a]quinoxaline]
RORγt
  EC50: 1420 nM
  Cellular Reporter Assay Amax: 1.7
RORγt-LBD
  EC50: 35.8 nM
  TR-FRET Biochemical Amax: 0.74

## CC(=O)N1CCN2c3ccc(/C=C/c4c(Cl)cccc4C(F)(F)F)cc3N(S(=O)(=O)c3cccc(C(F)(F)F)c3)C[C@@H]2C1 [Example 14, (S,E)-1-(8-(2-chloro-6-(tri-fluoromethyl)styryl)-6-((3-(trifluoromethyl)phenyl)sul-fonyl)-1,2,4,4a,5,6-hexa-hydro-3H-pyrazino[1,2-a]quinoxalin-3-yl)ethan-1-one]
RORγt
  EC50: 69.7 nM
  Cellular Reporter Assay Amax: 3.1
RORγt-LBD
  EC50: 30.5 nM
  TR-FRET Biochemical Amax: 0.89

## CC(=O)N1CCN2c3ccc(/C=C(\C)c4c(F)cccc4Cl)cc3N(S(=O)(=O)c3cccc(C(F)(F)F)c3)C[C@@H]2C1 [Example 15, (S,E)-1-(8-(2-(2-chloro-6-fluorophenyl)prop-1-en-1-yl)-6-((3-(trifluoromethyl)phenyl)sulfonyl)-1,2,4,4a,5,6-hexahydro-3H-pyrazino [1,2-a]quinoxalin-3-yl)ethan-1-one]
RORγt
  EC50: 134 nM
  Cellular Reporter Assay Amax: 3.2
RORγt-LBD
  EC50: 25 nM
  TR-FRET Biochemical Amax: 0.83

## CC(=O)N1CCN2c3ccc(C4=CC(C)(C)OC(C)(C)C4)cc3N(S(=O)(=O)c3cccc(C(F)(F)F)c3)C[C@@H]2C1 [Example 16, (S)-1-(8-(2,2,6,6-tetramethyl-yl-3,6-dihydro-2H-pyran-4-yl)-6-((3-(trifluoromethyl)phenyl)sulfonyl)-1,2,4,4a, 5,6-hexahydro-3H-pyrazino [1,2-a]quinoxalin-3-yl) ethan-1-one]
RORγt
  EC50: 59 nM
  Cellular Reporter Assay Amax: 2.0
RORγt-LBD
  EC50: 9.52 nM
  TR-FRET Biochemical Amax: 0.78

## CS(=O)(=O)N1CCN2c3ccc(/C=C/c4c(Cl)cccc4C(F)(F)F)cc3N(S(=O)(=O)c3cccc(C(F)(F)F)c3)C[C@@H]2C1 [Example 17, (S,E)-8-(2-chloro-6-(tri-fluoromethyl)styryl)-3-(methylsulfonyl)-6-((3-(trifluoromethyl)phenyl)sulfonyl)-2,3,4,4a,5,6-hexahydro-1H-pyrazino [1,2-a]quinoxaline]
RORγt
  EC50: 603 nM
  Cellular Reporter Assay Amax: 4.2
RORγt-LBD
  EC50: 29.6 nM
  TR-FRET Biochemical Amax: 0.82

## C/C(=C\c1ccc2c(c1)N(S(=O)(=O)c1cccc(C(F)(F)F)c1)C[C@@H]1CN(S(C)(=O)=O)CCN21)c1c(F)cccc1Cl [Example 18, (S,E)-8-(2-(2-chloro-6-fluorophenyl)prop-1-en-1-yl)-3-(methylsulfonyl)-6-((3-(trifluoromethyl)phenyl)sulfonyl)-2,3,4,4a, 5,6-hexahydro-1H-pyrazino[1,2-a]quinoxaline]
RORγt
  EC50: 178 nM
  Cellular Reporter Assay Amax: 4.3
RORγt-LBD
  EC50: 15.1 nM
  TR-FRET Biochemical Amax: 0.62

## CC1(C)C=C(c2ccc3c(c2)N(S(=O)(=O)c2cccc(C(F)(F)F)c2)C[C@@H]2CN(S(C)(=O)=O)CCN32)CC(C)(C)O1 [Example 19, (S)-3-(methylsulfonyl)-8-(2,2,6,6-tetramethyl-3,6-dihydro-2H-pyran-4-yl)-6-((3-(trifluorometh-yl)phenyl)sulfonyl)-2,3,4,4a,5,6-hexahydro-1H-pyrazino[1,2-a]quinoxaline]
RORγt
  EC50: 25.7 nM
  Cellular Reporter Assay Amax: 2.0
RORγt-LBD
  EC50: 17.8 nM
  TR-FRET Biochemical Amax: 0.97

## O=C(O)CN1CCN2c3ccc(/C=C/c4c(Cl)cccc4C(F)(F)F)cc3N(S(=O)(=O)c3cccc(C(F)(F)F)c3)C[C@@H]2C1 [Example 20, (S,E)-2-(8-(2-chloro-6-(trifluoro-methyl)styryl)-6-((3-(tri-fluoromethyl)phenyl)sulfonyl)-1,2,4,4a,5,6-hexahydro-3H-pyrazino[1,2-a]quinoxalin-3-yl)acetic acid]
RORγt
  EC50: 418 nM
  Cellular Reporter Assay Amax: 6.3
RORγt-LBD
  EC50: 32 nM
  TR-FRET Biochemical Amax: 1.01

## C/C(=C\c1ccc2c(c1)N(S(=O)(=O)c1cccc(C(F)(F)F)c1)C[C@@H]1CN(CC(=O)O)CCN21)c1c(F)cccc1Cl [Example 21, (S,E)-2-(8-(2-(2-chloro-6-fluoro-phenyl)prop-1-en-1-yl)-6-((3-(trifluoromethyl)phenyl)sulfonyl)-1,2,4,4a,5,6-hexa-hydro-3H-pyrazino[1,2-a]quinoxalin-3-yl)acetic acid]
RORγt
  EC50: 273 nM
  Cellular Reporter Assay Amax: 5.5
RORγt-LBD
  EC50: 17.6 nM
  TR-FRET Biochemical Amax: 0.94

## CC1(C)C=C(c2ccc3c(c2)N(S(=O)(=O)c2cccc(C(F)(F)F)c2)C[C@@H]2CN(CC(=O)O)CCN32)CC(C)(C)O1 [Example 22, (S)-2-(8-(2,2,6,6-tetramethyl-3,6-dihydro-2H-pyran-4-yl)-6-((3-(trifluoromethyl)phenyl)sulfonyl)-1,2,4,4a,5,6-hexa-hydro-3H-pyrazino[1,2-a]quinoxalin-3-yl)acetic acid]
RORγt
  EC50: 245 nM
  Cellular Reporter Assay Amax: 3.3
RORγt-LBD
  EC50: 1.51 nM
  TR-FRET Biochemical Amax: 0.62

## COC(=O)C(C)N1CCN2c3ccc(/C=C(\C)c4c(F)cccc4Cl)cc3N(S(=O)(=O)c3cccc(C(F)(F)F)c3)C[C@@H]2C1 (stereo partly drawn) [Example 23, methyl 2-((S)-8-((E)-2-(2-chloro-6-fluorophenyl)prop-1-en-1-yl)-6-((3-(trifluoromethyl)phenyl)sulfonyl)-1,2,4,4a,5,6-hexahydro-3H-pyrazino[1,2-a]quinoxalin-3-yl)propanoate]
RORγt
  EC50: 1080 nM
  Cellular Reporter Assay Amax: 3.8
RORγt-LBD
  EC50: 17.2 nM
  TR-FRET Biochemical Amax: 0.79

## COC(=O)C(C)N1CCN2c3ccc(C4=CC(C)(C)OC(C)(C)C4)cc3N(S(=O)(=O)c3cccc(C(F)(F)F)c3)C[C@@H]2C1 (stereo partly drawn) [Example 24, methyl 2-((S)-8-(2,2,6,6-tetramethyl-3,6-dihydro-2H-pyran-4-yl)-6-((3-(trifluoro-methyl)phenyl)sulfonyl)-1,2,4,4a,5,6-hexahydro-3H-pyrazino[1,2-a]qui-noxalin-3-yl)propanoate]
RORγt
  EC50: 48.5 nM
  Cellular Reporter Assay Amax: 2.4
RORγt-LBD
  EC50: 31.5 nM
  TR-FRET Biochemical Amax: 0.92
